Assay [1] is described as follows: Body weights of rats in CCl4 liver injury model. The class given is in vivo, Sprague-Dawley (SD) rats. The note with it: CCl4-treated rats, stomach tube, 8th week. As for the experimental part: The animal model was performed with five-week-old Sprague-Dawley (SD) rats purchased from BioLasco Taiwan Co., Ltd. Healthy rats weighing 220-270 g were chosen for experiment after observing for 2 weeks in the laboratory animal room. The rats were randomly divided into 6 groups (12 rats/group): normal (gp. A); control groups including model control (gp. B) and positive control (gp. C, animals receiving silymarin); treatment groups including animals receiving 300 mg/kg of cyclohexenone (gp. D), 1000 mg/kg of cyclohexenone (gp. E), and 3000 mg/kg of cyclohexenone (gp. F), as indicated in Table 1. Only normal group was not poisoned with CCl4. The body weights were recorded to calculate the dosage. […] It helps to remove toxins from liver cells by either neutralizing the toxicity of toxic compounds or competing with the binding sites in liver. It is a potent antioxidant, protects the liver from free radicals. It has been widely studied for treating various types of liver injury in animals and clinical trials. The beneficial effects on liver protection have made silymarin a good medicine for liver diseases and a drug in positive control group for the animal model of liver injury. Rats in normal group (group A) were fed with corn oil (Sigma chemical co.) by means of stomach tubes. Carbon tetrachloride (Shimakyu, Osaka, Japan) was administered to groups B to F via stomach tubes twice weekly (every Tuesday and Thursday afternoon) for 8 weeks, at a dose of 2 ml/kg of body weight, diluted with corn oil. Silymarin was prepared with saline in an amount of 200 mg/kg of body weight and was fed to rats of group C via a stomach tube. Cyclohexenone prepared from example 1 was mixed with saline, and fed in the amounts of 300 mg/kg, 1000 mg/kg and 3000 mg/kg of body weight to rats of group D to F via stomach tubes. The total feeding volume was estimated in the ratio of 10 ml/kg of body weight to groups C to F five days a week (every morning) for 8 weeks. The body weights of rats and the amounts of food intake in rats for each group were shown in FIG. 1 and FIG. 2, respectively. […]

Assay [2] relates to CCl4 treated, liver injury model animals. Kind of assay: Antioxidant enzymes in liver (GSH, GSHPx, catalase, SOD). The class given is in vivo, Sprague-Dawley (SD) rats. The note with it: CCl4-treated rats, 8 weeks. As for the experimental part:
The animal model was performed with five-week-old Sprague-Dawley (SD) rats purchased from BioLasco Taiwan Co., Ltd. Healthy rats weighing 220-270 g were chosen for experiment after observing for 2 weeks in the laboratory animal room. The rats were randomly divided into 6 groups (12 rats/group): normal (gp. A); control groups including model control (gp. B) and positive control (gp. C, animals receiving silymarin); treatment groups including animals receiving 300 mg/kg of cyclohexenone (gp. D), 1000 mg/kg of cyclohexenone (gp. E), and 3000 mg/kg of cyclohexenone (gp. F), as indicated in Table 1. Only normal group was not poisoned with CCl4. The body weights were recorded to calculate the dosage. […] It helps to remove toxins from liver cells by either neutralizing the toxicity of toxic compounds or competing with the binding sites in liver. It is a potent antioxidant, protects the liver from free radicals. It has been widely studied for treating various types of liver injury in animals and clinical trials. The beneficial effects on liver protection have made silymarin a good medicine for liver diseases and a drug in positive control group for the animal model of liver injury.
Rats in normal group (group A) were fed with corn oil (Sigma chemical co.) by means of stomach tubes. Carbon tetrachloride (Shimakyu, Osaka, Japan) was administered to groups B to F via stomach tubes twice weekly (every Tuesday and Thursday afternoon) for 8 weeks, at a dose of 2 ml/kg of body weight, diluted with corn oil. Silymarin was prepared with saline in an amount of 200 mg/kg of body weight and was fed to rats of group C via a stomach tube. Cyclohexenone prepared from example 1 was mixed with saline, and fed in the amounts of 300 mg/kg, 1000 mg/kg and 3000 mg/kg of body weight to rats of group D to F via stomach tubes. The total feeding volume was estimated in the ratio of 10 ml/kg of body weight to groups C to F five days a week (every morning) for 8 weeks. The body weights of rats and the amounts of food intake in rats for each group were shown in FIG. 1 and FIG. 2, respectively.
The liver stored at −80° C. as described above was immersed in PBS buffer (phosphate buffered saline solution, pH 7.4) containing 0.16 mg/ml heparin. Red blood cells were removed from the tissue. Liver was prepared as 1.0 g tissue/10 mL buffer homogenates in fresh, chilled 50 mM phosphate, 1 mM EDTA (pH 6-7) buffer using a Polytron homogenizer (setting 5, PT 10 probe, Brinkmann Instruments, Westbury, N.Y.) for one min. The solution was centrifuged at 10,000×g for 15 min at 4° C. Protein concentration was determined with a BCA protein assay kit (Pierce, Ill., USA) at 550 nm using an enzyme linked immunosorbent assay (ELISA) reader (MAX ELISA Reader, Quant, Bio-Tek Instrument, Vermont, USA). Commercial kits of glutathione (GSH), glutathione peroxidase (GSHPx), catalase (CAT), superoxide dismutase (SOD) (Glutathione Assay Kit, Cat No. 703002; Glutathione Peroxidase Assay Kit, Cat No. 703102; Catalase Assay Kit, Cat No. 707002; Superoxide Dismutase Assay Kit, Cat No. 706002) were purchased from Cayman Chemical Company (MI.USA) and assayed by reading at 405 nm, 340 nm, 540 nm and 450 nm using an ELISA reader. Deprotein step was carried out for all the assays mention above except SOD assay. Proteins were precipitated by mixing with equal volume of 10% metaphosphoric acid (w/v), vortex-mixed evenly, centrifuged at 2,000×g for 2 min. The supernatant was removed for enzyme assay. All values are expressed as mean ±SD, which were evaluated using One-way Analysis of Variance. Those with significant differences were further tested with the Least Significant Difference Test (LSD) or Student t-test to compare cyclohexenone treatment groups and normal groups, positive control and model groups. P<0.05 was selected as criterion for statistical significance in all cases.

Marks after values point to notes of the source that are not given here.

Turning to `COC1=C(OC)C(O)C(C/C=C(\C)CC/C=C(\C)CCC=C(C)C)C(C)C1=O` (stereo not drawn) [Cyclohexenone from Antrodia camphorata, 4-hydroxy-2,3-dimethoxy-6-methyl-5(3,7,11-trimethyl-dodeca-2,6,10-trienyl)-cyclohex-2-enone], the body weight in assay [1] (cyclohexenone 300 mg/kg) was determined as 386.6 g; in assay [1] (cyclohexenone 1000 mg/kg), 365.1 g; in assay [1] (cyclohexenone 3000 mg/kg), 355.0 g. The Catalase in assay [2] (cyclohexenone 300 mg/kg) is given as 9.1 ± 1.0 U/mg protein; in assay [2] (cyclohexenone 1000 mg/kg), 10.1 ± 1.4 U/mg protein; in assay [2] (cyclohexenone 3000 mg/kg), 9.8 ± 0.9 U/mg protein. The results for the “GSH (Glutathione activity)” value in assay [2] (cyclohexenone 300 mg/kg), in assay [2] (cyclohexenone 1000 mg/kg) and in assay [2] (cyclohexenone 3000 mg/kg) were 30.3 ± 3.2 uM/mg protein, 25.2 ± 1.8*^a uM/mg protein and 26.7 ± 4.3*^a uM/mg protein, respectively. The “GSHPx (glutathione peroxidase activity)” value worked out at 9.6 ± 1.7 nmol/min/mL in assay [2] (cyclohexenone 300 mg/kg), 11.2 ± 3.4 nmol/min/mL in assay [2] (cyclohexenone 1000 mg/kg) and 10.6 ± 3.1 nmol/min/mL in assay [2] (cyclohexenone 3000 mg/kg). For the same compound, the SOD in assay [2] (cyclohexenone 300 mg/kg) was found to be 0.47 U/mg protein; in assay [2] (cyclohexenone 1000 mg/kg), 0.52 ± 0.28 U/mg protein; in assay [2] (cyclohexenone 3000 mg/kg), 0.73 ± 0.23 U/mg protein.

The values above are taken from patent publication US7456225B1, “Liver protection compounds of the cyclohexenone type from Antrodia camphorata” (Golden Biotechnology Corporation, priority 2007, dated 2008).
